Source: PubChem BioAssay (NCI)
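Each compound was tested at five concentrations against cells in 96-well plates for 48 hours. TGI is the concentration that stops growth completely.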

Columns and labels:
Experiment in all cases: inhibition of tumour cell growth, NCI panel, 48 h
XF 498 CNS = test system: XF 498 CNS
RXF-631 renal = test system: RXF-631 renal
DLD-1 colon = test system: DLD-1 colon
K-562 leukemia = test system: K-562 leukemia
DMS 273 small cell lung = test system: DMS 273 small cell lung
KM20L2 colon = test system: KM20L2 colon
HOP-18 NSCLC = test system: HOP-18 NSCLC
LXFL 529 NSCLC = test system: LXFL 529 NSCLC
SNB-78 CNS = test system: SNB-78 CNS
M19-MEL melanoma = test system: M19-MEL melanoma
SR leukemia = test system: SR leukemia
DMS 114 small cell lung = test system: DMS 114 small cell lung

## O=C1CS(=O)c2ccccc2N1 (stereo unspecified)
XF 498 CNS
  TGI: > 100 µM
RXF-631 renal
  TGI: > 100 µM
DLD-1 colon
  TGI: > 100 µM
K-562 leukemia
  TGI: > 100 µM
DMS 273 small cell lung
  TGI: 33.9 µM
KM20L2 colon
  TGI: > 100 µM
HOP-18 NSCLC
  TGI: > 100 µM
LXFL 529 NSCLC
  TGI: > 100 µM
SNB-78 CNS
  TGI: > 100 µM
M19-MEL melanoma
  TGI: > 100 µM
SR leukemia
  TGI: > 100 µM

## CC1=C(N2CC2)C(=O)C(C)=C(N2CC2)C1=O
XF 498 CNS
  TGI: 0.3 µM
DLD-1 colon
  TGI: 0.829 µM
K-562 leukemia
  TGI: 3.92 µM
DMS 273 small cell lung
  TGI: 1.38 µM
KM20L2 colon
  TGI: 0.568 µM
HOP-18 NSCLC
  TGI: 11.4 µM
LXFL 529 NSCLC
  TGI: 0.431 µM
SNB-78 CNS
  TGI: > 100 µM
DMS 114 small cell lung
  TGI: 0.471 µM
M19-MEL melanoma
  TGI: 0.92 µM
SR leukemia
  TGI: 5.72 µM

## CC(Cn1c(=O)oc2ccccc21)N(C)C (stereo unspecified)
K-562 leukemia
  TGI: > 100 µM
SR leukemia
  TGI: > 100 µM

## O=C(N/N=C\c1ccc(Cl)cc1)Nc1cccc2ccccc12
K-562 leukemia
  TGI: > 100 µM
SR leukemia
  TGI: 9.11 µM

## Cc1nc2c(n1Cc1ccc(F)cc1)C(=O)c1ccccc1C2=O
XF 498 CNS
  TGI: > 100 µM
K-562 leukemia
  TGI: 86.9 µM
DMS 273 small cell lung
  TGI: > 100 µM
KM20L2 colon
  TGI: > 100 µM
LXFL 529 NSCLC
  TGI: > 100 µM
SNB-78 CNS
  TGI: > 100 µM
M19-MEL melanoma
  TGI: 13.5 µM
SR leukemia
  TGI: > 100 µM

## COc1ccc(OC)c(CCc2ccccc2CC(=O)O)c1
XF 498 CNS
  TGI: > 100 µM
DLD-1 colon
  TGI: > 100 µM
K-562 leukemia
  TGI: > 100 µM
DMS 273 small cell lung
  TGI: > 100 µM
KM20L2 colon
  TGI: > 100 µM
HOP-18 NSCLC
  TGI: > 100 µM
LXFL 529 NSCLC
  TGI: > 100 µM
SNB-78 CNS
  TGI: > 100 µM
DMS 114 small cell lung
  TGI: > 100 µM
M19-MEL melanoma
  TGI: > 100 µM
SR leukemia
  TGI: > 100 µM

## COc1c(-c2ccc(F)cc2)oc2c(CC(=O)O)cccc2c1=O
K-562 leukemia
  TGI: > 100 µM
SR leukemia
  TGI: > 100 µM

## COC1=C(OC)C(=O)C(C/C=C/c2c(Cl)nc3sccn23)=C(C)C1=O
K-562 leukemia
  TGI: 68.3 µM
SR leukemia
  TGI: 66 µM

## CC(C)(CN1CCCCC1)C(=O)CC(SCCS(=O)(=O)O)c1ccccc1 (stereo unspecified)
K-562 leukemia
  TGI: 29.6 µM
SR leukemia
  TGI: 13.9 µM

## COc1cc2cnc3c4cc(O)ccc4ccc3c2cc1OC
DLD-1 colon
  TGI: > 100 µM
K-562 leukemia
  TGI: > 100 µM
KM20L2 colon
  TGI: > 100 µM
HOP-18 NSCLC
  TGI: > 100 µM
LXFL 529 NSCLC
  TGI: > 100 µM
DMS 114 small cell lung
  TGI: 39.4 µM
M19-MEL melanoma
  TGI: > 100 µM
SR leukemia
  TGI: > 100 µM

## CC(=O)c1ccc(Nc2nc3ccccc3c3occc23)cc1
SR leukemia
  TGI: 18.4 µM

## c1cc2cc(Cc3ccc4[nH]ccc4c3)ccc2[nH]1
K-562 leukemia
  TGI: > 100 µM
SR leukemia
  TGI: 39.2 µM

## O=C(OCC1CC(C2(O)CCCCC2)C(=O)O1)c1ccccc1 (stereo unspecified)
K-562 leukemia
  TGI: > 100 µM
SR leukemia
  TGI: > 100 µM

## CCCCCCC(O)C(=O)OC1C2C(CC1(C)C)C(O)C13OC1C(O)C1(CO1)[C@@]23C (stereo partly specified)
K-562 leukemia
  TGI: > 100 µM
SR leukemia
  TGI: > 100 µM

## Cc1ccc(/C=C2\CCS(=O)(=O)c3ccccc3C2=O)cc1
K-562 leukemia
  TGI: > 100 µM
SR leukemia
  TGI: 63.7 µM

## CC(=O)O[C@H]1C(=O)[C@@]2(C)[C@H]([C@H](OC(=O)c3ccccc3)[C@]3(O)C[C@H](OC(=O)[C@H](O)[C@@H](NC(=O)OC(C)(C)C)c4ccco4)C(C)=C1C3(C)C)[C@]1(OC(C)=O)CO[C@@H]1C[C@@H]2O
K-562 leukemia
  TGI: 13.4 µM
SR leukemia
  TGI: > 29 µM

## Clc1ccc2c(c1)CC1C[N+]3=C(CCCCC3)C1=C2 (stereo unspecified)
K-562 leukemia
  TGI: > 100 µM

## O=C(N/N=C/c1cc(Cl)cc(Cl)c1[OH2+])c1ccncc1.O=S(=O)([O-])[O-].[Fe+2]
K-562 leukemia
  TGI: 51.4 µM
KM20L2 colon
  TGI: 36.3 µM
SR leukemia
  TGI: 54.6 µM

## CSc1c(S(C)=O)c2ccccc2n1C (stereo unspecified)
K-562 leukemia
  TGI: > 100 µM
SR leukemia
  TGI: > 100 µM

## O=C(O)C1Cc2[nH]c3ccccc3c2C2CCCC12 (stereo unspecified)
XF 498 CNS
  TGI: > 100 µM
DLD-1 colon
  TGI: > 100 µM
K-562 leukemia
  TGI: > 100 µM
DMS 273 small cell lung
  TGI: > 100 µM
KM20L2 colon
  TGI: > 100 µM
LXFL 529 NSCLC
  TGI: > 100 µM
SNB-78 CNS
  TGI: > 100 µM
DMS 114 small cell lung
  TGI: > 100 µM
M19-MEL melanoma
  TGI: > 100 µM
SR leukemia
  TGI: > 100 µM

## N#C/C(=C\c1ccccc1F)C(=O)c1ccccc1
XF 498 CNS
  TGI: > 100 µM
K-562 leukemia
  TGI: > 100 µM
DMS 273 small cell lung
  TGI: > 100 µM
KM20L2 colon
  TGI: > 100 µM
LXFL 529 NSCLC
  TGI: > 100 µM
SNB-78 CNS
  TGI: > 100 µM
DMS 114 small cell lung
  TGI: > 100 µM
M19-MEL melanoma
  TGI: > 100 µM
SR leukemia
  TGI: > 100 µM

## O=C(/C=C/c1ccc(O)c(O)c1)c1ccc(O)cc1O
DLD-1 colon
  TGI: 29.3 µM
K-562 leukemia
  TGI: 25.4 µM
DMS 273 small cell lung
  TGI: 25 µM
KM20L2 colon
  TGI: 31.3 µM
SNB-78 CNS
  TGI: 58.3 µM
DMS 114 small cell lung
  TGI: 7.55 µM
M19-MEL melanoma
  TGI: 27.1 µM
SR leukemia
  TGI: > 78.8 µM

## S=C1C(CCCOCc2ccccc2)C2CCCC23CC2(CCN13)OCCS2 (stereo unspecified)
K-562 leukemia
  TGI: > 10 µM
SR leukemia
  TGI: > 10 µM

## C=C1C(=O)O[C@H]2C1C[C@H](O)/C(C)=C/CC[C@@]1(C)O[C@H]21 (stereo partly specified)
K-562 leukemia
  TGI: > 100 µM
SR leukemia
  TGI: 30.9 µM

## CC(C)NC(=O)OCc1c(COC(=O)NC(C)C)c(-c2cc[n+](COC(=O)Cc3ccccc3)cc2)n2c1CCC2
K-562 leukemia
  TGI: > 100 µM
SR leukemia
  TGI: > 100 µM

## CC(=O)c1sc2c(c1OC(=O)c1ccccc1)c(=O)n(-c1ccccc1)c(=S)n2-c1ccccc1
K-562 leukemia
  TGI: > 58.3 µM

## CCCCCCc1cc2cc(-c3cn4ccccc4n3)c(=O)oc2cc1O
K-562 leukemia
  TGI: > 40.3 µM
SR leukemia
  TGI: 18.8 µM

## O=C(/C=C/c1ccc(Cl)cc1)c1nc2ccccc2[nH]1
K-562 leukemia
  TGI: 30.7 µM

## O=C1Nc2n[nH]c(=S)n2NC12c1ccccc1-c1ccccc12
SR leukemia
  TGI: > 100 µM

## CCOC(OCC)[C@@H]1C[C@@H]2N(O[C@H](OC3CCCC3(c3ccccc3)c3ccccc3)[C@H](OC(C)=O)[C@@]2(CC)Cc2ccc(OC)c(OC)c2)O1 (stereo partly specified)
K-562 leukemia
  TGI: > 100 µM
SR leukemia
  TGI: > 100 µM

## O=c1[nH]nc(-c2ccccc2)n1-n1cccc1
K-562 leukemia
  TGI: > 100 µM
SR leukemia
  TGI: 97 µM

## COc1cc2c(c(OC)c1)C(=O)C(=O)C(CC1(C)OCCCO1)=C2
XF 498 CNS
  TGI: 25.6 µM
RXF-631 renal
  TGI: 36.6 µM
DLD-1 colon
  TGI: 8.45 µM
K-562 leukemia
  TGI: 6.7 µM
DMS 273 small cell lung
  TGI: 28.4 µM
KM20L2 colon
  TGI: 31.9 µM
HOP-18 NSCLC
  TGI: 24.5 µM
LXFL 529 NSCLC
  TGI: 14.6 µM
SNB-78 CNS
  TGI: 26 µM
DMS 114 small cell lung
  TGI: 12.7 µM
M19-MEL melanoma
  TGI: 6.18 µM

## Cn1c2ccccc2c(=NNc2ccc(S(=O)(=O)N=C(N)N)cc2)c2ccccc21
K-562 leukemia
  TGI: 18 µM
SR leukemia
  TGI: 40.5 µM

## O=C(O)CCC1(CCC(=O)O)CCCCCCCCC(CCC(=O)O)(CCC(=O)O)C(=O)C1=O
K-562 leukemia
  TGI: > 100 µM
SR leukemia
  TGI: > 100 µM

## C[C@@]12C[C@@H](c3ccccc3O1)N1CCCSC1=N2
K-562 leukemia
  TGI: > 100 µM
SR leukemia
  TGI: > 100 µM
